Measurements taken from ChEMBL document CHEMBL5375954, “Discovery and Evaluation of C6-Substituted Pyrazolopyrimidine-Based Bisphosphonate Inhibitors of the Human Geranylgeranyl Pyrophosphate Synthase and Evaluation of Their Antitumor Efficacy in Multiple Myeloma, Pancreatic Ductal Adenocarcinoma, and Colorectal Cancer” (J Med Chem, 2023).
pEC50, pIC50: −log10 of the molar value. The source made the active and inactive calls. No cut-off for these calls is given here.

What was measured:
[1] = test system: RPMI-8226; test: cells; settings: Homo sapiens, RPMI-8226, 72 h
[2] = biological target: Cytochrome P450 2C9 (Homo sapiens, UniProt P11712); test: Inhibition of CYP2C9 (unknown origin); format: ADME
Cytochrome P450 2C9, sequence (P11712 whole entry): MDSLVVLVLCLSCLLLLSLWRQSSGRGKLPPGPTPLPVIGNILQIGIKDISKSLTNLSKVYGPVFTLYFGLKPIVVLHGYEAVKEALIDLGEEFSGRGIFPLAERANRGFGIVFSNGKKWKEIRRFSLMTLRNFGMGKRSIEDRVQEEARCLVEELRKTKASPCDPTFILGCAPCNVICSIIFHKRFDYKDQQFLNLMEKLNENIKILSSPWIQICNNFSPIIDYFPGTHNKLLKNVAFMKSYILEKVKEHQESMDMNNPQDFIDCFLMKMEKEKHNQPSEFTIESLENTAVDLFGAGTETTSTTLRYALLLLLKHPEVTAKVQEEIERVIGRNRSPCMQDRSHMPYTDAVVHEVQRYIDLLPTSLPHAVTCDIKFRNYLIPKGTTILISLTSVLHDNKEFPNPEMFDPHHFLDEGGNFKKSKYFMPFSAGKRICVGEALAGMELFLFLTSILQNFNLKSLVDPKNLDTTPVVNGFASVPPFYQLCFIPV

[3] = test system: MIA PaCa-2; test: cells; settings: Homo sapiens, MIA PaCa-2, 72 h
[4] = Metabolic stability in human liver microsomes assessed as compound remaining incubated for 45 mins in presence of NADPH by LC-MS/MS analysis; format: ADME, Microsome; settings: 0.75 h
[5] = Hepatotoxicity in male NSG mouse xenografted with human RPMI-8226 cells assessed as serum AST level at 3 mg/kg, ip administered 3 times a week for 26 days and measured 48 hrs post last dose (reference value: 76 to 78 IU/L); format: toxicity, organism-based; settings: in vivo, 672 h, time 28 day
[6] = test system: HCT-116; test: Induction of apoptosis in human HCT-116 cells assessed as early apoptotic cells at 1 uM incubated for 72 hrs by APC-Annexin-V/7-AAD staining based flow cytometry (reference value: 1.16%); format: functional
[7] = test system: KMS-28PE; test: Antiproliferative activity against human KMS-28-PE cells harboring KRAS G12A mutant at 0.1 to 10000 nM incubated for 72 hrs by MTS assay; format: functional, cell-based; settings: dose 0.1-10000 nM
[8] = test system: RPMI-8226; test: Antitumor activity against human RPMI-8226 cells xenografted in NSG mouse assessed as reduction in tumor volume at 3 mg/kg, ip administered 3 times a week for 26 days; format: functional, organism-based; settings: time 26.0 day
[9] = Hepatotoxicity in female NSG mouse xenografted with human RPMI-8226 cells assessed as serum ALT level at 3 mg/kg, ip administered 3 times a week for 26 days and measured 48 hrs post last dose (reference value: 30 to 98 IU/L); format: toxicity, organism-based; settings: in vivo, 672 h, time 28 day
[10] = Toxicity in NSG mouse xenografted with human MIA PaCa-2 cells assessed as appearance of skin lesions at 3 mg/kg, ip administered 3 times a week for 26 days and measured daily; format: organism-based; settings: in vivo, time 26 day
[11] = test system: HCT-116; test: Induction of apoptosis in human HCT-116 cells assessed as late apoptotic cells at 1 uM incubated for 72 hrs in presence of geranylgeraniol by APC-Annexin-V/7-AAD staining based flow cytometry (reference value: 0%); format: functional
[12] = Toxicity in NSG mouse xenografted with human MIA PaCa-2 cells assessed as weight loss at 3 mg/kg, ip administered 3 times a week for 26 days and measured daily; format: organism-based; settings: in vivo, time 26 day
[13] = Volume of distribution in Sprague-Dawley rat at 3 mg/kg, iv measured for 24 hrs by LC-MS/MS analysis; format: ADME, organism-based; settings: in vivo
[14] = biological target: T1, Ras-related protein Rap-1A (Homo sapiens) (UniProt P62834); test: Inhibition of RAP-1A prenylation in human MIA PaCa-2 cells incubated for 48 hrs by Western blot analysis; format: cell-based; settings: dose 10-1000 nM
T1 sequence (whole entry): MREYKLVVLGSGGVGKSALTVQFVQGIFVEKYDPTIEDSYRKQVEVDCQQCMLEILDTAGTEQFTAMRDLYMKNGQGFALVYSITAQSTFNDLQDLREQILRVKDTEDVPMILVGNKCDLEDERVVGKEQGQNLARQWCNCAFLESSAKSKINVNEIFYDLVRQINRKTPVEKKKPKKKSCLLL

[15] = Half life in Sprague-Dawley rat at 3 mg/kg, iv measured for 24 hrs by LC-MS/MS analysis; format: ADME, organism-based; settings: in vivo
[16] = test system: HCT-116; test: Induction of apoptosis in human HCT-116 cells assessed as necrotic cells at 1 uM incubated for 72 hrs in presence of geranylgeraniol by APC-Annexin-V/7-AAD staining based flow cytometry (reference value: 2.99%); format: functional
[17] = Cytotoxicity against human IMR-90 cells assessed as inhibition of cell growth at 360 nM incubated for 72 hrs by MTS assay relative to control; format: toxicity, cell-based
[18] = test system: HCT-116; test: cells; settings: Homo sapiens, HCT-116, 72 h
[19] = Hepatotoxicity in male NSG mouse xenografted with human RPMI-8226 cells assessed as serum ALT level at 3 mg/kg, ip administered 3 times a week for 26 days and measured 48 hrs post last dose (reference value: 35 to 40 IU/L); format: toxicity, organism-based; settings: in vivo, 672 h, time 28 day
[20] = Hepatotoxicity in male NSG mouse xenografted with human RPMI-8226 cells assessed as prominent nucleoli at 3 mg/kg, ip administered 3 times a week for 26 days and measured 48 hrs post last dose by H and E staining based assay; format: toxicity, organism-based; settings: in vivo, 672 h, time 28 day
[21] = Metabolic stability in human liver microsomes assessed as compound remaining incubated for 45 mins in absence of NADPH by LC-MS/MS analysis; format: ADME, Microsome; settings: 0.75 h

SMILES: Cn1ncc2c(NC(P(=O)(O)O)P(=O)(O)O)nc(-c3cccc(C(=O)Nc4ccc(C(F)(F)F)cc4)c3)nc21
- pEC50 [1]: 7.15
- pIC50 [2]: < 4.40
- pEC50 [3]: 6.10
- Stability [4]: 107%
- Activity [5]: 96 IU/L
- Activity [6]: 20.7%
- Activity [7]: Active
- Activity [8]: Active
- Activity [9]: 59 IU/L
- Activity [10]: Non-Toxic
- Activity [11]: 2.17%
- Activity [12]: Non-Toxic
- Vd [13]: 0.055 L/kg
- inhibition [14]: Dose-Dependent Effect
- half-life [15]: 3.84 h
- Activity [16]: 2.55%
- inhibition at 72 h, 0.36 µM [17]: 0%
- pEC50 [18]: 6.24
- Activity [19]: 42 IU/L
- Activity [20]: Non-Toxic
- Stability [21]: 100%
